Results on six compounds are retold here after patent US6262065A (priority 1998, dated 2001).

For assay [1], the target named is T1, α-mannosidase (jack bean) (Canavalia ensiformis, UniProt C0HJB3).
T1 construct: purchased Sigma Chemical Co
T1 sequence (C0HJB3 1-562 limits assumed): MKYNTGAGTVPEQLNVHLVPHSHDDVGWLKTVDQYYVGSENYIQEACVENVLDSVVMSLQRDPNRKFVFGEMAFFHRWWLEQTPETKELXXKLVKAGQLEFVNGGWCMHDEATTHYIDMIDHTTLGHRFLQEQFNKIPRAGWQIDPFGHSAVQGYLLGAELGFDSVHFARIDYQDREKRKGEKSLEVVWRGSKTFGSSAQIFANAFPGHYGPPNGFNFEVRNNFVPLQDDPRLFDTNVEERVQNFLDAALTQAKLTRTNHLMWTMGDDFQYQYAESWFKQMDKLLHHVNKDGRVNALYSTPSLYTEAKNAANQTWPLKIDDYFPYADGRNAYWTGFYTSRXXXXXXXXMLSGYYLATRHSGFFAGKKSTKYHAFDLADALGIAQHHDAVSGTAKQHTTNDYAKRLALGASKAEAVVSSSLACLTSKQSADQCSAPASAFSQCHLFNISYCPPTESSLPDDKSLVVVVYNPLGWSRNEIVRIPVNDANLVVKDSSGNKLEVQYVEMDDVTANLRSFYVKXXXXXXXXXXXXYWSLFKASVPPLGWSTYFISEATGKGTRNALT
T1 sequence (C0HJB3 563-981 limits assumed): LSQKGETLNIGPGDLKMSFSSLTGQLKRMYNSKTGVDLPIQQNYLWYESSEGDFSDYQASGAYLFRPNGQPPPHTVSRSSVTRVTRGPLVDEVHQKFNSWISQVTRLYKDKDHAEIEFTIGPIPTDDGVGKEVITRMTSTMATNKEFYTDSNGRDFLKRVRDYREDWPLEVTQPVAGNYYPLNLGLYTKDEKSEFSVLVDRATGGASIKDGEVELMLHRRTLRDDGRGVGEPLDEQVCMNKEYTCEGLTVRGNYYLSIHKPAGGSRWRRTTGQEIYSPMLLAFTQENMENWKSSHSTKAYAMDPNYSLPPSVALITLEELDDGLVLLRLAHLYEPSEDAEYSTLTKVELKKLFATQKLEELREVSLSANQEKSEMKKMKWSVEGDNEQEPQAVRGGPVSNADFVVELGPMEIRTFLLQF
The assay can be described thus: inhibition of α-mannosidase (jack bean), colorimetric release of p-nitrophenol from p-nitrophenyl α-D-mannopyranoside. The format is biochemical. To be noted: initial screening.
Experimental: The enzyme α-mannosidase (from jack bean) and the corresponding p-nitrophenyl α-D-mannopyranoside substrate was obtained from Sigma Chemical Co. Enzyme inhibition was assayed colorimetrically by monitoring the release of p-nitrophenol from p-nitrophenyl α-D-mannopyranoside according to the procedure described by Tropea, et. al. (Tropea, J. E., et al, Biochemistry, Vol. 28, pp. 2027-2034 (1989)).

For assay [2], the system named is amyloglucosidase. To be noted: cited from earlier work.
Assay [3] deals with glucosidase I. Conditions: cited from earlier work.
Assay [4] relates to HIV. Conditions: cited from earlier work.
Assay [5] relates to mannosidases including the glycoprotein processing enzyme mannosidase II. Conditions: many mannosidases including mannosidase II; cited from earlier work.

Each structure is given as a SMILES string. pIC50: −log10 of the molar value.

Turning to `OC[C@@H]1[C@@H](O)[C@@H](O)[C@H]2[C@H](O)CCCN21` [(VII), (1S,2R,3R,8R,8aR)-3-(Hydroxymethyl)-1,2,8-trihydroxyindolizidine], in assay [1], the pIC50 is 5.92.
On the same count and under the same terms, for `OC[C@H]1[C@@H](O)[C@@H](O)[C@H]2[C@H](O)CCCN21` [(VIII), (1S,2R,3S,8R,8aR)-3-(Hydroxymethyl)-1,2,8-trihydroxyindolizidine] the value was 4.35.
Regarding `OCC1C(O)C(O)C2C(O)CCN12` (stereo not shown) [compound 1], the inhibition of amyloglucosidase entry in assay [2] is “good inhibitors”. Besides, in assay [3], the “inhibition of glucosidase I” value is reported as “good inhibitors”.
As to `OCC1C(O)C(O)C2C(O)CCN12` (stereo not shown) [compound 3], the inhibition of amyloglucosidase result in assay [2] is “good inhibitors”. Also, the “inhibition of glucosidase I” value in assay [3] was “good inhibitors”.
`OCC1C(O)C(O)C2C(O)CCN12` (stereo not shown) [compound 4]: the inhibition of amyloglucosidase result in assay [2] is on record as “good inhibitors”. In assay [3], the “inhibition of glucosidase I” value is recorded as “good inhibitors”. The anti-HIV activity entry in assay [4] is recorded as “shows anti-HIV activity”.
In the case of `O[C@H]1[C@H]2[C@H](O)CCCN2C[C@H]1O` [swainsonine, (-)-swainsonine], the inhibition of mannosidases entry in assay [5] is “potent inhibitor”.
